This passage reports cells undergoing apoptosis and IC50 results from patent US8202902B2, “Bivalent SMAC mimetics and the uses thereof” (The Regents of the University of Michigan, priority 2006, dated 2012).

For test [1], the system named is SK-OV-3 ovarian cancer cell line. The test is described as follows: Apoptosis assay (Annexin V/P.I.), SK-OV-3. In kind it is cell-based. The settings on record: 1 nM for 12 h. How it is done:
Analysis of apoptosis was performed using an apoptosis detection kit (BioVision Research Products, Mountain View, Calif.) according to the manufacturer's protocol. Briefly, cells were treated with Smac mimetics for 12 hours, harvested and washed with ice-cold PBS. Cells were stained with Annexin V-FITC and Propidium iodide (P.I.) for 15 minutes at room temperature in the dark and immediately analyzed by FACS calibur flow cytometer (Becton Dickinson, Erembodegem, Belgium). Cells that were stained Annexin V (+) and P.I. (−) were considered early-stage apoptotic cells. Cells that were stained annexin V (+) and P.I. (+) were considered late-stage apoptotic cells and cells that were stained annexin V (−) and P.I. (+) were considered necrotic cells (FIG. 6).
Treatment with SM-164 at 1 nM for 12 h induced 32%, 33%, and 37% of the MDA-MB-231, SK-OV-3 and MALME-3M cells to undergo apoptosis, respectively (FIGS. 12-14).

Test [2] concerns MAMEL-3M melanoma cell line. As to the kind of experiment: Cell growth inhibition, WST-8 assay, MAMEL-3M. In kind it is cell-based. The settings on record: 96 h, 4 days. How it is done: Cells were seeded in 96-well flat bottom cell culture plates at a density of 3000 cells/well with a tested compound and incubated at 37° C. in an atmosphere of 95% air and 5% CO2 for 4 days. The rate of cell growth inhibition after treatment with different concentrations of the compound was determined using a WST-8 kit (2-(2-methoxy-4-nitrophenyl)-3-(4-nitrophenyl)-5-(2, 4 disulfophenyl)-2H-tetrazolium monosodium salt; Dojindo Molecular Technologies, Inc., Gaithersburg, Md.). WST-8 was added at a final concentration of 10% to each well, and then the plates were incubated at 37° C. for 2-3 hrs. The absorbance of the samples was measured at 450 nm using a ULTRA Tecan Reader (Molecular Device).
(Formazan colour is commonly taken as a measure of viable cells.)

Broadly, the IC50 is the concentration that gives 50% inhibition. Lower therefore signals inhibition by little substance. `CN[C@@H](C)C(=O)N[C@H]1CCCC[C@H]2CC[C@@H](C(=O)N[C@@H](c3ccccc3)c3cn(CCCCc4ccc(CCCCn5cc([C@@H](NC(=O)[C@@H]6CC[C@@H]7CCCC[C@H](NC(=O)[C@H](C)NC)C(=O)N76)c6ccccc6)nn5)cc4)nn3)N2C1=O` [SH-164] had a cells undergoing apoptosis in test [1] of 33%. In addition, in test [2], half-maximal inhibition (IC50) required 1.4 nM.
